Assays:
[1] = molecular target: T1, Recombinant human JAK2 catalytic domain (Homo sapiens, UniProt O60674); test: JAK2 inhibition assay (polyGT substrate / Ulight-JAK1 peptide assay); type: biochemical
T1 construct: Recombinant human JAK2 catalytic domain (amino acids 808-1132; catalog number PV4210); GST; purchased Invitrogen PV4210
Procedure: Recombinant human JAK2 catalytic domain (amino acids 808-1132; catalog number PV4210) was purchased from Invitrogen. 0.025 mU of JAK2 is incubated with […] polyGT substrate (Sigma catalog number P0275) in kinase reaction buffer (5 mM MOPS pH 7.5, 9 mM MgAc, 0.3 mM EDTA, 0.06% Brij and 0.6 mM DTT, 1 μM non-radioactive ATP, 0.25 μCi ^33P-gamma-ATP (GE Healthcare, catalog number AH9968) final concentrations) with or without 5 μL containing test compound or vehicle (DMSO, 1% final concentration), in a total volume of 25 μL, in a polypropylene 96-well plate (Greiner, V-bottom). After 90 min at 30° C., reactions are stopped by adding of 25 μL/well of 150 mM phosphoric acid. All of the terminated kinase reaction is transferred to prewashed (75 mM phosphoric acid) 96 well filter plates (Perkin Elmer catalog number 6005177) using a cell harvester (Perkin Elmer). Plates are washed 6 times with 300 μL per well of a 75 mM phosphoric acid solution and the bottom of the plates is sealed. 40 μL/well of Microscint-20 is added, the top of the plates is sealed and readout is performed using the Topcount (Perkin Elmer). Kinase activity is calculated by subtracting counts per min (cpm) obtained in the presence of a positive control inhibitor (10 μM staurosporine) from cpm obtained in the presence of vehicle. The ability of a test compound to inhibit this activity is determined as:
(§1) [formula] • RFU test compound=RFU determined for sample with test compound present • RFU control=RFU determined for sample with positive control inhibitor • RFU vehicle=RFU determined in the presence of vehicle
Dose dilution series are prepared for the compounds enabling the testing of dose-response effects in the JAK2 assay and the calculation of the IC50 for each compound. Each compound is routinely tested at concentration of 20 μM followed by a 1/3 serial dilution, 8 points (20 μM-6.67 μM-2.22 μM-740 nM-247 nM-82 nM-27 nM-9 nM) in a final concentration of 1% DMSO. When potency of compound series increased, more dilutions are prepared and/or the top concentration is lowered (e.g. 5 μM, 1 μM).
Recombinant human JAK2 (catalytic domain, amino acids 866-1154; catalog number PV4210) was purchased from Invitrogen. 0.0125 mU of JAK2 was incubated with 25 nM Ulight-JAK1 (tyr1023) peptide (Perkin Elmer catalog number TRF0121) in kinase reaction buffer (25 mM HEPES pH7.0, 0.01% Triton X-100, 7.5 mM MgCl2, 2 mM DTT, 7.5 μM ATP) with or without 4 μL containing test compound or vehicle (DMSO, 1% final concentration), in a total volume of 20 μL, in a white 384 Opti plate (Perkin Elmer, catalog number 6007290). After 60 min at room temperature, reactions were stopped by adding 20 μL/well of detection mixture (1× detection buffer (Perkin Elmer, catalog number CR97-100C), 0.5 nM Europium-anti-phosphotyrosine (PT66) (Perkin Elmer, catalog number AD0068), 10 mM EDTA). Readout is performed using the Envision with excitation at 320 nm and measuring emission at 615 nm (Perkin Elmer). Kinase activity was calculated by subtracting relative fluorescence units (RFU) obtained in the presence of a positive control inhibitor (10 μM staurosporine) from RFU obtained in the presence of vehicle. The ability of a test compound to inhibit this activity was determined as: Percentage inhibition=((RFU determined for sample with test compound present−RFU determined for sample with positive control inhibitor) divided by (RFU determined in the presence of vehicle−RFU determined for sample with positive control inhibitor))*100.
Dose dilution series are prepared for compound enabling the testing of dose-response effects in the JAK2 assay and the calculation of the IC50 for the compound. Each compound is routinely tested at concentration of 20 μM followed by a 1/5 serial dilution, 10 points in a final concentration of 1% DMSO. When potency of compound series increases, more dilutions are prepared and/or the top concentration are lowered (e.g. 5 μM, 1 μM). […]

[2] = molecular target: T2, Recombinant human JAK3 catalytic domain (Homo sapiens, UniProt P52333); test: JAK3 inhibition assay; type: biochemical
T2 construct: Recombinant human JAK3 catalytic domain (amino acids 781-1124; catalog number PV3855); purchased Invitrogen PV3855
T2 sequence (P52333 781-1124): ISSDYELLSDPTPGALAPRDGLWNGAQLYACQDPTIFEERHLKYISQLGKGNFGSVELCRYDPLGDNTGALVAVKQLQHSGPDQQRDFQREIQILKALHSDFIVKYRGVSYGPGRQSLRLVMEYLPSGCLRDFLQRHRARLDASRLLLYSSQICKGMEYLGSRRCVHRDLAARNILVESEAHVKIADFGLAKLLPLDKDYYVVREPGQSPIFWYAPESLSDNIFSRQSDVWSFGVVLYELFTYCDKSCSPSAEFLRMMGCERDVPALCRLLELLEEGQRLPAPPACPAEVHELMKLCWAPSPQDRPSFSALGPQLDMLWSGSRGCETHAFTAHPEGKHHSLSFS
Procedure: Recombinant human JAK3 catalytic domain (amino acids 781-1124; catalog number PV3855) was purchased from Invitrogen. 0.5 ng JAK3 protein was incubated with 2.5 μg polyGT substrate (Sigma catalog number P0275) in kinase reaction buffer (25 mM Tris pH 7.5, 0.5 mM EGTA, 10 mM MgCl2, 2.5 mM DTT, 0.5 mM Na3VO4, 5 mM b-glycerolphosphate, 0.01% Triton X-100, 1 μM non-radioactive ATP, […] ^33P-gamma-ATP (GE Healthcare, catalog number AH9968) final concentrations) with or without 5 μL containing test compound or vehicle (DMSO, 1% final concentration), in a total volume of 25 μL, in a polypropylene 96-well plate (Greiner, V-bottom). After 45 min at 30° C., reactions were stopped by adding 25 μL/well of 150 mM phosphoric acid. All of the terminated kinase reaction was transferred to prewashed (75 mM phosphoric acid) 96 well filter plates (Perkin Elmer catalog number 6005177) using a cell harvester (Perkin Elmer). Plates were washed 6 times with 300 μL per well of a 75 mM phosphoric acid solution and the bottom of the plates was sealed. 40 μL/well of Microscint-20 was added, the top of the plates was sealed and readout was performed using the Topcount (Perkin Elmer). Kinase activity was calculated by subtracting counts per min (cpm) obtained in the presence of a positive control inhibitor (10 μM staurosporine) from cpm obtained in the presence of vehicle. The ability of a test compound to inhibit this activity was determined as:
as §1
Dose dilution series were prepared for the compounds enabling the testing of dose-response effects in the JAK3 assay and the calculation of the IC50 for each compound. Each compound was routinely tested at concentration of 20 μM followed by a 1/5 serial dilution, 10 points in a final concentration of 1% DMSO. When potency of compound series increased, more dilutions were prepared and/or the top concentration was lowered (e.g. 5 μM, 1 μM).

[3] = Illustrative Compounds of the invention (Table VII)
[4] = Illustrative Compounds of the invention (Table IX)

T1 sequence (O60674 808-1132): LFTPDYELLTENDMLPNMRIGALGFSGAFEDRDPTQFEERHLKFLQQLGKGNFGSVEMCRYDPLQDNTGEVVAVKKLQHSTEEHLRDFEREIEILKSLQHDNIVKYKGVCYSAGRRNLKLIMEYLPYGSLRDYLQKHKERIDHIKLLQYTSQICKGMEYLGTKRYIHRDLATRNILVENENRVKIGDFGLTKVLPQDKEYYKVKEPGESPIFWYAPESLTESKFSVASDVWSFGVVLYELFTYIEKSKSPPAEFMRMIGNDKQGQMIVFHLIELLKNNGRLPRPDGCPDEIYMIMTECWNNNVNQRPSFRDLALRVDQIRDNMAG

Row | Structure (SMILES) | IC50 [1, 3] [nM] | IC50 [2, 4] [nM] | IC50 ([1]; Comparative Compounds (Table VIII)) [nM] | IC50 ([2]; Comparative Compounds (Table X)) [nM]
1 | CNC(=O)Nc1cc(Oc2cnc(C#N)cc2C)cc2c1ncn2C | 0.1 to 50 | 100 to 500 |  | 
2 | CCc1cc(C#N)cc(F)c1N(C)c1cc(NC(=O)[C@@H]2C[C@@H]2F)c2ncn(C)c2c1 (racemic) [Cpd 7, N-(6-((4-cyano-2-ethyl-6-fluorophenyl)(methyl)amino)-1-methyl-1H-benzo[d]imidazol-4-yl)-2-fluorocyclopropanecarboxamide (1S,2S)/(1R,2R) racemic mixture] | 0.1 to 50 | 0.1 to 50 |  | 
3 | CN(c1ccc2ncn(C)c2c1)c1ccc(C#N)cc1F [C, 3-fluoro-4-[methyl-(3-methylbenzimidazol-5-yl)amino]benzonitrile, reference compound] |  |  | > 500 | > 500
4 | CCc1cc(C#N)ncc1N(C)c1cc(NC(=O)C2CC2)c2ncn(C)c2c1 [Cpd 1, N-(6-((6-cyano-4-ethylpyridin-3-yl)(methyl)amino)-1-methyl-1H-benzo[d]imidazol-4-yl)cyclopropanecarboxamide] | 0.1 to 50 | 50 to 100 |  | 
5 | CCc1cc(C#N)cc(F)c1Nc1cc(NC(=O)C2CC2)c2ncn(C)c2c1 [Cpd 2, N-(6-(4-cyano-2-ethyl-6-fluorophenylamino)-1-methyl-1H-benzo[d]imidazol-4-yl)cyclopropanecarboxamide] | 0.1 to 50 | 0.1 to 50 |  | 
6 | CCc1cc(C#N)cc(F)c1N(C)c1cc(NC(=O)C2CC2)c2ncn(C)c2c1 [Cpd 3, N-(6-((4-cyano-2-ethyl-6-fluorophenyl)(methyl)amino)-1-methyl-1H-benzo[d]imidazol-4-yl)cyclopropanecarboxamide] | 0.1 to 50 | 0.1 to 50 |  | 
7 | CCc1cc(C#N)ncc1N(C)c1cc(NC(=O)OC)c2ncn(C)c2c1 [Cpd 4, methyl 6-((6-cyano-4-ethylpyridin-3-yl)(methyl)amino)-1-methyl-1H-benzo[d]imidazol-4-ylcarbamate] | 0.1 to 50 | 100 to 500 |  | 
8 | CCc1cc(C#N)cc(F)c1N(C)c1cc(NC(=O)OC)c2ncn(C)c2c1 [Cpd 5, methyl 6-((4-cyano-2-ethyl-6-fluorophenyl)(methyl)amino)-1-methyl-1H-benzo[d]imidazol-4-ylcarbamate] | 0.1 to 50 | 50 to 100 |  | 
9 | CCc1cc(C#N)ncc1Oc1cc(NC(=O)[C@H]2C[C@H]2F)c2ncn(C)c2c1 [Cpd 6, (1R,2R)-N-[6-[(6-cyano-4-ethyl-3-pyridyl)oxy]-1-methyl-benzimidazol-4-yl]-2-fluoro-cyclopropanecarboxamide] | 0.1 to 50 | > 500 |  | 
10 | CCc1cc(C#N)ncc1N(C)c1cc(NC(=O)[C@H]2C[C@H]2F)c2ncn(C)c2c1 [Cpd 8, (1R,2R)-N-(6-((6-cyano-4-ethylpyridin-3-yl)(methyl)amino)-1-methyl-1H-benzo[d]imidazol-4-yl)-2-fluorocyclopropanecarboxamide] | 0.1 to 50 | 100 to 500 |  | 
11 | Cc1cc(C#N)ncc1N(C)c1cc(NC(=O)[C@H]2C[C@H]2F)c2ncn(C)c2c1 [Cpd 9, (1R,2R)-N-(6-((6-cyano-4-methylpyridin-3-yl)(methyl)amino)-1-methyl-1H-benzo[d]imidazol-4-yl)-2-fluorocyclopropanecarboxamide] | 0.1 to 50 | 100 to 500 |  | 
12 | CCc1cc(C#N)ccc1Oc1cc(NC(=O)[C@H]2C[C@H]2F)c2ncn(C)c2c1 [Cpd 10, (1R,2R)-N-[6-(4-cyano-2-ethyl-phenoxy)-1-methyl-benzimidazol-4-yl]-2-fluoro-cyclopropanecarboxamide] | 0.1 to 50 | 100 to 500 |  | 
13 | CN(c1cc(NC(=O)[C@H]2C[C@H]2F)c2ncn(C)c2c1)c1c(F)cc(C#N)cc1Cl [Cpd 11, (1R,2R)-N-[6-(2-chloro-4-cyano-6-fluoro-N-methyl-anilino)-1-methyl-benzimidazol-4-yl]-2-fluoro-cyclopropanecarboxamide] | 0.1 to 50 | 100 to 500 |  | 
14 | Cc1cc(F)ncc1N(C)c1cc(NC(=O)[C@H]2C[C@H]2F)c2ncn(C)c2c1 [Cpd 12, (1R,2R)-2-fluoro-N-[6-[(6-fluoro-4-methyl-3-pyridyl)-methyl-amino]-1-methyl-benzimidazol-4-yl]cyclopropanecarboxamide] | 50 to 100 | 100 to 500 |  | 
15 | CN(c1cc(NC(=O)[C@H]2C[C@H]2F)c2ncn(C)c2c1)c1ccc(F)nc1F [Cpd 13, (1R,2R)-N-[6-[(2,6-difluoro-3-pyridyl)-methyl-amino]-1-methyl-benzimidazol-4-yl]-2-fluoro-cyclopropanecarboxamide] | 100 to 500 | > 500 |  | 
16 | CN(c1cc(NC(=O)[C@H]2C[C@H]2F)c2ncn(C)c2c1)c1ccc(C#N)nc1F [Cpd 14, (1R,2R)-N-[6-[(6-cyano-2-fluoro-3-pyridyl)-methyl-amino]-1-methyl-benzimidazol-4-yl]-2-fluoro-cyclopropanecarboxamide] | 50 to 100 | 100 to 500 |  | 
17 | CN(c1cc(NC(=O)[C@H]2C[C@H]2F)c2ncn(C)c2c1)c1ccc(C#N)cc1F [Cpd 15, (1R,2R)-N-[6-(4-cyano-2-fluoro-N-methyl-anilino)-1-methyl-benzimidazol-4-yl]-2-fluoro-cyclopropanecarboxamide] | 100 to 500 | > 500 |  | 
18 | Cc1cc(S(C)(=O)=O)cc(F)c1N(C)c1cc(NC(=O)[C@H]2C[C@H]2F)c2ncn(C)c2c1 [Cpd 16, (1R,2R)-2-fluoro-N-[6-(2-fluoro-N,6-dimethyl-4-methylsulfonyl-anilino)-1-methyl-benzimidazol-4-yl]cyclopropanecarboxamide] | 0.1 to 50 | 50 to 100 |  | 
19 | CN(c1cc(NC(=O)[C@H]2C[C@H]2F)c2ncn(C)c2c1)c1ccc(S(C)(=O)=O)cc1F [Cpd 17, (1R,2R)-2-fluoro-N-[6-(2-fluoro-N-methyl-4-methylsulfonyl-anilino)-1-methyl-benzimidazol-4-yl]cyclopropanecarboxamide] | > 500 | > 500 |  | 
